In patent US6653478B2, “Substituted benzimidazol-2-ones as vasopressin receptor antagonists and neuropeptide Y modulators” (Ortho-McNeil Pharmaceutical, Inc., priority 2000, dated 2003):

Legend:
human V2 receptor = human V2 receptor (Homo sapiens, UniProt P30518); assay: V2 binding assay (3H-AVP displacement, HEK-293 membranes); parameters: expressed in transfected cells; host or cells: HEK-293 (membranes); conditions: 1.0 μM compound; read-out: V2@1.0, % Inh
Summary of the method: (§1)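 Membranes from transfected HEK-293 cells incubated 1 h at room temperature with ³H-AVP (10,000 cpm) in 50 mM Tris, 5 mM MgCl2, 0.1% BSA, pH 7.5 plus protease inhibitors. Non-specific binding set with 1.25 μM AVP. Bound tracer collected on PEI-soaked GF/C filters and counted by scintillation.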

NPY2 receptors = target: T1, NPY2 receptors (Homo sapiens, UniProt P49146); assay: Neuropeptide Y receptor binding assay (125I-PYY, KAN-TS cell membranes); conditions: 10 μM compound; read-out: NPY-2@10, % Inh
T1 construct: Cell Membranes from KAN-TS cells having NPY2 receptors; endogenous in cells; host or cells: KAN-TS cells (membranes)
T1 sequence (P49146 1-381): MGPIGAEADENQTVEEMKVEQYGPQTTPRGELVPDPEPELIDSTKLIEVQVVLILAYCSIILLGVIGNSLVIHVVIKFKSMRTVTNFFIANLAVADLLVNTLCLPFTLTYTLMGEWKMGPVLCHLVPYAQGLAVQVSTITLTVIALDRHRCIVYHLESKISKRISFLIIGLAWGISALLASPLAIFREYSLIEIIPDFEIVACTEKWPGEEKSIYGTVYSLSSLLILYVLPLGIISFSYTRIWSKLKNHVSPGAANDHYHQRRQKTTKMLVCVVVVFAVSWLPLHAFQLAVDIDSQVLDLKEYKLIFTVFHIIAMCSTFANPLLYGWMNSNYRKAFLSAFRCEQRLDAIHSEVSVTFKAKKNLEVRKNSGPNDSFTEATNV
Experimental: Neuropeptide Y Receptor Binding Assay
Load 96-well RIA racks with RIA vials (Sarstedt, cat. #73.1055)
Prepare membranes—use 2×15 cm confluent plates/96-well assay plate
Add 14 mls Homogenization buffer/cell pellet
Homogenize at high speed for 15 seconds
Transfer to 15 ml conical tube and spin 5′ at 4° C. at setting 3 in RT6000 centrifuge
Transfer supernatant to 30 ml Corex tube
Balance and spin 25′ at 15,000 rpm at 4° C.
Resuspend pellet in 10 mls Binding buffer
Homogenize at high speed for 15 sec.
Bring volume up to 50 mls in Binding buffer (25 mls/2×96-well plates)
Keep on ice until use or freeze in aliquots (2 plates/tube) in −70° C.
Prepare ^125I-PYY (for 2×96-well compound plates)
Dilute 50 uCi ^125I-PYY in 1 ml H2O
Add 0.4 ml 10% BSA to 20 ml Binding buffer
Add 150 μl ^125I-PYY, mix well
NSB (1 μM PYY final conc.): 40 μl PYY (100 μM stock)+60 μl 30% DMSO in HEPES=40 μM PYY—add 5 μl/well
Total Binding: Add 5 μl/well of Compound Diluent
Add 5 μl compound (final conc. @10 μM)
Incubate at R.T. for 1 hr.
Spin plates for 10′ at setting 9 in RT6000 centrifuge
Aspirate supernatant from tubes, add 300 μl PBS and aspirate again.
After plates are washed and aspirated, put individual tubes in 12×75 mm polypropylene carrier tubes. Count on gamma counter.

human V1a receptor = human V1a receptor (Homo sapiens, UniProt P37288); assay: V1a binding assay (3H-AVP displacement, HEK-293 membranes); parameters: expressed in transfected cells; host or cells: HEK-293 (membranes); conditions: for inhibition at 1 µM: 1.0 μM compound, read-out: V1a@1.0, % Inh
Summary of the method: as §1

human V1b receptor = target: T2, human V1b receptor (Homo sapiens, UniProt P47901); assay: V1b binding assay (3H-AVP displacement, HEK-293 membranes); parameters: expressed in transfected cells; host or cells: HEK-293 (membranes); conditions: for inhibition at 1 µM: 1.0 μM compound, read-out: V1b@1.0, % Inh; for inhibition at 10 µM: 10 μM compound, read-out: V1b % Inh @10
T2 sequence (P47901 1-424): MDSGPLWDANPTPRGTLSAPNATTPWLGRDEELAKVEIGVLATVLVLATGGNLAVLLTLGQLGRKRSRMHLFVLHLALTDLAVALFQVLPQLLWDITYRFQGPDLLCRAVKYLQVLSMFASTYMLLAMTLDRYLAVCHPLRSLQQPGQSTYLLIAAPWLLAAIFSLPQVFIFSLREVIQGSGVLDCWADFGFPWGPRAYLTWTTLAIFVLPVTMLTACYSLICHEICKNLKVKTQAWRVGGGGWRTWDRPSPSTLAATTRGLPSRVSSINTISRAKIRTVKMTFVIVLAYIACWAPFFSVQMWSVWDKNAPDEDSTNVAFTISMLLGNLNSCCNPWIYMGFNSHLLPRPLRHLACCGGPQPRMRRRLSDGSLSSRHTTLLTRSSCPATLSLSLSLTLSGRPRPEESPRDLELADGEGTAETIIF
Summary of the method: as §1

Chain of human V1a receptor (P37288 whole entry): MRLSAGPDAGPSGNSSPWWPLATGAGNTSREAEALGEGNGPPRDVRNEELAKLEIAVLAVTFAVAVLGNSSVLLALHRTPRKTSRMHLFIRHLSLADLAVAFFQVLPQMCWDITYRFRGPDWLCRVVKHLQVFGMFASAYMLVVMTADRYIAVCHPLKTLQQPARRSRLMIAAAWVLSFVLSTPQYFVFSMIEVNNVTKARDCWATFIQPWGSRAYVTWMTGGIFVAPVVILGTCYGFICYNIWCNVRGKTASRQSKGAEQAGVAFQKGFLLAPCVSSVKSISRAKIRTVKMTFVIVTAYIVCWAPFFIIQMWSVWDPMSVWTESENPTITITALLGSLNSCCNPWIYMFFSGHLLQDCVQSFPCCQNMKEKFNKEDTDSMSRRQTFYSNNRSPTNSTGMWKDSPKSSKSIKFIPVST
Chain of human V2 receptor (P30518 whole entry): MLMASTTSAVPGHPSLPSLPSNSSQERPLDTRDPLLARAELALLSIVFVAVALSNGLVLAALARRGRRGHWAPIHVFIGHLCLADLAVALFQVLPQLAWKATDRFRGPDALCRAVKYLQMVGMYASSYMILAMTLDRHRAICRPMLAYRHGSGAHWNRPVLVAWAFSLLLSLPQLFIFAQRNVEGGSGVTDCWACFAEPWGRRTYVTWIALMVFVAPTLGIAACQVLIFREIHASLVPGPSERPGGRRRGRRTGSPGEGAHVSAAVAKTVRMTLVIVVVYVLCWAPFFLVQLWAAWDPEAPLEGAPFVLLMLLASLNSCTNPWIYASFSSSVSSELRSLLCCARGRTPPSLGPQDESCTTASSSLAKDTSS

inhibition at 1 µM (human V2 receptor) [%]	inhibition at 10 µM (NPY2 receptors) [%]	inhibition at 1 µM (human V1a receptor) [%]	inhibition at 1 µM (human V1b receptor) [%]	IC50 (human V1a receptor) [nM]	IC50 (human V1b receptor) [nM]	inhibition at 10 µM (human V1b receptor) [%]	inhibition at 0.1 µM (human V1a receptor; 0.1 μM compound, read-out: V1a % Inh @0.1) [%]	SMILES
21	52	94	55					O=c1n(CCCN2CCCCC2)c2ccccc2n1C1CCN(C(=S)NCC(c2ccccc2)c2ccccc2)CC1 [Compound 118, 1-[(N1-piperidinocarbothioyl-2,2-diphenylethylamino)-4-yl]-3-(3-N-piperidinylpropyl)-1,3-dihydrobenzimidazol-2-one]
0	79			29	870	88		CN(C)CCCn1c(=O)n(C2CCN(C(=S)NC(c3ccccc3)c3ccccc3)CC2)c2ccccc21 [Compound 71, 1-[(N1-piperidinocarbothioylbenzhydrylamino)-4-yl]-3-(3-N,N-dimethylaminopropyl)-1,3-dihydrobenzimidazol-2-one]
0	21					11	15	COc1ccc(C(NC(=S)N2CCC(n3c(=O)[nH]c4ccccc43)CC2)c2ccc(OC)cc2)cc1 [Compound 66, 1-[(N1-Piperidinocarbothioyl-1,1-di(p-anisyl)methylamino)-4-yl]-1,3-dihydrobenzimidazol-2-one]
10	14	17				7		O=c1[nH]c2ccccc2n1C1CCN(C(=S)NCc2cccc3ccccc23)CC1 [Compound 15]
0	89			16	300			O=c1n(CCCN2CCCC2)c2ccccc2n1C1CCN(C(=S)NC(c2ccccc2)c2ccccc2)CC1 [Compound 73, 1-[(N1-piperidinocarbothioylbenzhydrylamino)-4-yl]-3-(3-N-pyrrolidinopropyl)-1,3-dihydro-benzimidazol-2-one]
0	14		35	34				O=C(NC(c1ccccc1)c1ccccc1)N1CCC(n2c(=O)n(CCCN3CCCCC3)c3ccccc32)CC1 [Compound 97, 1-[(N1-piperidinocarbonylbiphenylmethylamino)-4-yl]-3-(3-N-piperidinylpropyl)-1,3-dihydrobenzimidazol-2-one]
10	5	55				13		O=C(NC(=S)N1CCC(n2c(=O)[nH]c3ccccc32)CC1)c1ccccc1 [Compound 8]
0	8	34	10					O=C(NCc1ccccc1F)N1CCC(n2c(=O)n(CCCN3CCCC3)c3ccccc32)CC1 [Compound 89]
0	4	47				18		O=C1c2ccccc2C(=O)N1CCCn1c(=O)n(C2CCN(C(=S)NC(c3ccccc3)c3ccccc3)CC2)c2ccccc21 [Compound 54, 1-[(N1-Piperidinocarbothioyldiphenylmethylamino)-4-yl]-3-(3-N-phthalimidopropyl)-1,3-dihydrobenzimidazol-2-one]
20	15	33				0		CC(NC(=S)N1CCC(n2c(=O)[nH]c3ccccc32)CC1)c1ccc(F)cc1 (stereo not drawn) [Compound 27]
1	18	0				0		COc1ccccc1CNC(=S)N1CCC(n2c(=O)[nH]c3ccccc32)CC1 [Compound 14]
38	52			590		0		O=c1[nH]c2ccccc2n1C1CCN(C(=S)NC(c2ccccc2)c2ccccc2)CC1 [Compound 1, 1-[(N1-Piperidinocarbothioyldiphenylmethylamino)-4-yl]-1,3-dihydro-benzimidazol-2-one]
14	96		48	18				O=c1n(CCCCN2CCCC2)c2ccccc2n1C1CCN(C(=S)NC(c2ccccc2)c2ccccc2)CC1 [Compound 104]
3	22			360		19		COC(=O)C(Cc1ccccc1)NC(=S)N1CCC(n2c(=O)n(CCCN3C(=O)c4ccccc4C3=O)c3ccccc32)CC1 (stereo not drawn) [Compound 56]
9	16	20				0		COc1cc(NC(=S)N2CCC(n3c(=O)[nH]c4ccccc43)CC2)cc(OC)c1OC [Compound 6]
9	12	19				0		CN(C)c1ccc(CNC(=S)N2CCC(n3c(=O)[nH]c4ccccc43)CC2)cc1 [Compound 24]
2	9	37				24		CC(=O)NCCNC(=O)C(Cc1ccccc1)NC(=S)N1CCC(n2c(=O)[nH]c3ccccc32)CC1 (stereo not drawn) [Compound 44]
3	26			3100		0		O=c1[nH]c2ccccc2n1C1CCN(C(=S)NCc2ccccc2)CC1 [Compound 11]
0	55		32	139				O=c1n(CCCN2CCCCC2)c2ccccc2n1C1CCN(C(=S)NCc2cccc3ccccc23)CC1 [Compound 112, 1-[(N1-piperidinocarbothioyl-1-naphthalmethylamino)-4-yl]-3-(3-N-piperidinylpropyl)-1,3-dihydrobenzimidazol-2-one]
2	0	41	19					Cc1ccccc1NC(=O)N1CCC(n2c(=O)n(CCCN3CCCCC3)c3ccccc32)CC1 [Compound 110, 1-[(N1-piperidinocarbonyl-2-methylphenylamino)-4-yl]-3-(3-N-piperidinylpropyl)-1,3-dihydrobenzimidazol-2-one]
9	7	25				0		O=c1[nH]c2ccccc2n1C1CCN(C(=S)NCCCc2ccccc2)CC1 [Compound 38]
12	15	56				0		O=c1[nH]c2ccccc2n1C1CCN(C(=S)NCCc2cccc(Cl)c2)CC1 [Compound 23]
0	20		43	79				O=C(NC(c1ccccc1)c1ccccc1)N1CCC(n2c(=O)n(CCCN3CCCC3)c3ccccc32)CC1 [Compound 96, 1-[(N1-piperidinocarbonyldiphenylmethylamino)-4-yl]-3-(3-N-pyrrolidinylpropyl)-1,3-dihydrobenzimidazol-2-one]
